Assay results from PubChem BioAssay AID1745844 (Carcinogenic Potency Database (CPDB), 2022).
Values joined by “and” are separate entries in the source; they are usually repeats but may differ in a detail not shown here. Equal entries are not always repeated. Active and inactive are the calls of the source. No rule for the calls is given here.

Tested on: rodent lifetime carcinogenesis bioassay, tumor incidence TD50
Assay: chronic cancer bioassays in animals – CPDB, compiled studies (AID 1745844)

SMILES: Cc1cc(C)c(N)cc1C
- TD50 (mouse, strain B6C3F1, females, in feed, site: any site (literature study), lesion: several types, types named in the paper, dosed 101 weeks, study length 101 weeks): 22.4 mg/kg/day
- TD50 (mouse, strain B6C3F1, females, in feed, site: liver, lesion: hepatocellular adenoma + hepatocellular carcinoma + neoplastic nodule, dosed 101 weeks, study length 101 weeks): 6.13 mg/kg/day
- TD50 (mouse, strain B6C3F1, females, in feed, site: liver, lesion: hepatocellular carcinoma, dosed 101 weeks, study length 101 weeks): 6.13 mg/kg/day
- TD50 (mouse, strain B6C3F1, females, in feed, site: lung, lesion: alveolar/bronchiolar adenoma + alveolar/bronchiolar carcinoma, dosed 101 weeks, study length 101 weeks): 47.6 mg/kg/day
- TD50 (mouse, strain B6C3F1, males, in feed, site: any site (literature study), lesion: several types, types named in the paper, dosed 101 weeks, study length 101 weeks): 52.5 mg/kg/day (inactive)
- TD50 (mouse, strain B6C3F1, males, in feed, site: liver, lesion: hepatocellular adenoma + hepatocellular carcinoma + neoplastic nodule, dosed 101 weeks, study length 101 weeks): 14.4 mg/kg/day
- TD50 (mouse, strain CD-1 HaM/ICR, females, in feed, site: any site (literature study), lesion: several types, types named in the paper, dosed 77 weeks, study length 98 weeks): 47.2 mg/kg/day
- TD50 (mouse, strain CD-1 HaM/ICR, females, in feed, site: liver, lesion: hepatoma, dosed 77 weeks, study length 98 weeks): 62.9 mg/kg/day and 62.3 mg/kg/day
- TD50 (mouse, strain CD-1 HaM/ICR, females, in feed, site: liver, lesion: several types, types named in the paper, dosed 77 weeks, study length 98 weeks): 60.4 mg/kg/day
- TD50 (mouse, strain CD-1 HaM/ICR, females, in feed, site: lung, lesion: several types, types named in the paper, dosed 77 weeks, study length 98 weeks): 52.8 mg/kg/day and 64.7 mg/kg/day
- TD50 (mouse, strain CD-1 HaM/ICR, males, in feed, site: all sites, lesion: all vascular tumors, dosed 77 weeks, study length 98 weeks): 260 mg/kg/day
- TD50 (mouse, strain CD-1 HaM/ICR, males, in feed, site: any site (literature study), lesion: several types, types named in the paper, dosed 77 weeks, study length 98 weeks): 40.3 mg/kg/day
- TD50 (mouse, strain CD-1 HaM/ICR, males, in feed, site: liver, lesion: hepatoma, dosed 77 weeks, study length 98 weeks): 46.2 mg/kg/day and 44.2 mg/kg/day
- TD50 (mouse, strain CD-1 HaM/ICR, males, in feed, site: liver, lesion: several types, types named in the paper, dosed 77 weeks, study length 98 weeks): 35.4 mg/kg/day
- TD50 (mouse, strain CD-1 HaM/ICR, males, in feed, site: lung, lesion: several types, types named in the paper, dosed 77 weeks, study length 98 weeks): 40 mg/kg/day and 63 mg/kg/day
- TD50 (rat, strain Charles River CD (Sprague-Dawley), males, in feed, site: any site (literature study), lesion: several types, types named in the paper, dosed 77 weeks, study length 98 weeks): 37.2 mg/kg/day
- TD50 (rat, strain Charles River CD (Sprague-Dawley), males, in feed, site: liver, lesion: hepatoma, dosed 77 weeks, study length 98 weeks): 98.5 mg/kg/day
- TD50 (rat, strain Charles River CD (Sprague-Dawley), males, in feed, site: liver, lesion: several types, types named in the paper, dosed 77 weeks, study length 98 weeks): 47.9 mg/kg/day
- carcinogen call (rat, strain Charles River CD (Sprague-Dawley), males, in feed, site: subcutaneous tissue, lesion: several types, types named in the paper, dosed 77 weeks, study length 98 weeks): positive
- TD50 (rat, strain Fischer 344, females, in feed, site: any site (literature study), lesion: several types, types named in the paper, dosed 101 weeks, study length 101 weeks): 396 mg/kg/day
- TD50 (rat, strain Fischer 344, females, in feed, site: liver + lung, lesion: hepatocellular carcinoma + neoplastic nodule + alveolar/bronchiolar adenoma + alveolar/bronchiolar carcinoma, dosed 101 weeks, study length 101 weeks): 20.4 mg/kg/day
- TD50 (rat, strain Fischer 344, females, in feed, site: liver, lesion: hepatocellular adenoma + hepatocellular carcinoma + neoplastic nodule, dosed 101 weeks, study length 101 weeks): 27.2 mg/kg/day
- TD50 (rat, strain Fischer 344, females, in feed, site: liver, lesion: hepatocellular carcinoma + neoplastic nodule, dosed 101 weeks, study length 101 weeks): 27.2 mg/kg/day
- TD50 (rat, strain Fischer 344, females, in feed, site: liver, lesion: hepatocellular carcinoma, dosed 101 weeks, study length 101 weeks): 142 mg/kg/day
- TD50 (rat, strain Fischer 344, females, in feed, site: lung, lesion: alveolar/bronchiolar adenoma + alveolar/bronchiolar carcinoma, dosed 101 weeks, study length 101 weeks): 88.1 mg/kg/day
- TD50 (rat, strain Fischer 344, males, in feed, site: any site (literature study), lesion: several types, types named in the paper, dosed 101 weeks, study length 101 weeks): 138 mg/kg/day
- TD50 (rat, strain Fischer 344, males, in feed, site: liver, lesion: bile duct carcinoma, dosed 101 weeks, study length 101 weeks): 268 mg/kg/day
- TD50 (rat, strain Fischer 344, males, in feed, site: liver, lesion: hepatocellular adenoma + hepatocellular carcinoma + neoplastic nodule, dosed 101 weeks, study length 101 weeks): 43.8 mg/kg/day
- TD50 (rat, strain Fischer 344, males, in feed, site: liver, lesion: hepatocellular carcinoma + neoplastic nodule, dosed 101 weeks, study length 101 weeks): 43.8 mg/kg/day
- TD50 (rat, strain Fischer 344, males, in feed, site: liver, lesion: hepatocellular carcinoma, dosed 101 weeks, study length 101 weeks): 71.8 mg/kg/day
- TD50 (rat, strain Fischer 344, males, in feed, site: lung, lesion: alveolar/bronchiolar adenoma + alveolar/bronchiolar carcinoma, dosed 101 weeks, study length 101 weeks): 180 mg/kg/day

SMILES: O=C(CCl)c1ccccc1
- TD50 (mouse, strain B6C3F1, females, inhaled, site: any site (literature study), lesion: several types, types named in the paper, dosed 103 weeks, study length 105 weeks): 4.31 mg/kg/day (inactive)
- TD50 (mouse, strain B6C3F1, females, inhaled, site: lung, lesion: alveolar/bronchiolar adenoma + alveolar/bronchiolar carcinoma, dosed 103 weeks, study length 105 weeks): 33.4 mg/kg/day
- TD50 (mouse, strain B6C3F1, males, inhaled, site: any site (literature study), lesion: several types, types named in the paper, dosed 103 weeks, study length 106 weeks): 2.69 mg/kg/day (inactive)
- TD50 (mouse, strain B6C3F1, males, inhaled, site: liver, lesion: hepatocellular adenoma + hepatocellular carcinoma + neoplastic nodule, dosed 103 weeks, study length 106 weeks): 5.24 mg/kg/day
- TD50 (mouse, strain B6C3F1, males, inhaled, site: lung, lesion: alveolar/bronchiolar adenoma + alveolar/bronchiolar carcinoma, dosed 103 weeks, study length 106 weeks): 10.4 mg/kg/day
- TD50 (rat, strain Fischer 344, females, inhaled, site: any site (literature study), lesion: several types, types named in the paper, dosed 103 weeks, study length 105 weeks): 0.859 mg/kg/day
- TD50 (rat, strain Fischer 344, females, inhaled, site: mammary gland, lesion: adenocarcinoma + adenoma + fibroadenoma, dosed 103 weeks, study length 105 weeks): 0.224 mg/kg/day
- TD50 (rat, strain Fischer 344, females, inhaled, site: mammary gland, lesion: adenoma + fibroadenoma, dosed 103 weeks, study length 105 weeks): 0.208 mg/kg/day
- TD50 (rat, strain Fischer 344, females, inhaled, site: mammary gland, lesion: fibroadenoma, dosed 103 weeks, study length 105 weeks): 0.211 mg/kg/day
- carcinogen call (rat, strain Fischer 344, males, inhaled, site: any site (literature study), lesion: several types, types named in the paper, dosed 103 weeks, study length 105 weeks): negative (inactive)

SMILES: CCCC/C=N/N(C)C=O
- TD50 (mouse, strain Swiss albino, females, by gavage, site: liver, lesion: hepatoma, benign, dosed 52 weeks, study length 144 weeks): 11.8 mg/kg/day
- TD50 (mouse, strain Swiss albino, females, by gavage, site: lung, lesion: adenocarcinoma, dosed 52 weeks, study length 144 weeks): 9.29 mg/kg/day
- TD50 (mouse, strain Swiss albino, females, by gavage, site: lung, lesion: adenoma, dosed 52 weeks, study length 144 weeks): 5.64 mg/kg/day
- TD50 (mouse, strain Swiss albino, females, by gavage, site: lung, lesion: several types, types named in the paper, dosed 52 weeks, study length 144 weeks): 3.12 mg/kg/day
- TD50 (mouse, strain Swiss albino, males, by gavage, site: liver, lesion: hepatoma, dosed 52 weeks, study length 134 weeks): 33.1 mg/kg/day
- TD50 (mouse, strain Swiss albino, males, by gavage, site: lung, lesion: adenocarcinoma, dosed 52 weeks, study length 134 weeks): 11 mg/kg/day
- TD50 (mouse, strain Swiss albino, males, by gavage, site: lung, lesion: adenoma, dosed 52 weeks, study length 134 weeks): 5.52 mg/kg/day
- TD50 (mouse, strain Swiss albino, males, by gavage, site: lung, lesion: several types, types named in the paper, dosed 52 weeks, study length 134 weeks): 3.79 mg/kg/day
- TD50 (mouse, strain Swiss albino, males, by gavage, site: preputial gland, lesion: several types, types named in the paper, dosed 52 weeks, study length 134 weeks): 16.2 mg/kg/day
- TD50 (mouse, strain Swiss albino, males, by gavage, site: preputial gland, lesion: squamous-cell carcinoma, dosed 52 weeks, study length 134 weeks): 19.8 mg/kg/day
- TD50 (mouse, strain Swiss albino, males, by gavage, site: preputial gland, lesion: squamous-cell papilloma, dosed 52 weeks, study length 134 weeks): 106 mg/kg/day
